Source: patent US20070009571A1, “Novel haptotactic peptides” (Hadasit Medical Research Services & Development Ltd., priority 1998, published 2007)
Entries after “also recorded” stand apart in the source; their conditions may differ. No end group written: not given here.

B1: γ chain: isolated γ chain of fibrinogen (protein, UniProt P02679 27-453, looked up)
Fibrinogen gamma chain: YVATRDNCCILDERFGSYCPTTCGIADFLSTYQTKVDKDLQSLEDILHQVENKTSEVKQLIKAIQLTYNPDESSKPNMIDAATLKSRKMLEEIMKYEASILTHDSSIRYLQEIYNSNNQKIVNLKEKVAQLEAQCQEPCKDTVQIHDITGKDCQDIANKGAKQSGLYFIKPLKANQQFLVYCEIDGSGNGWTVFQKRLDGSVDFKKNWIQYKEGFGHLSPTGTTEFWLGNEKIHLISTQSAIPYALRVELEDWNGRTSTADYAMFKVGPEADKYRLTYAYFAGGDAGDAFDGFDFGDDPSDKFFTSHNGMQFSTWDNDNDKFEGNCAEQDGSGWWMNKCHAGHLNGVYYQGGTYSKASTPNGYDNGIIWATWKTRWYSMKKTTMKIIPFNRLTIGEGQQHHLGGAKQVRPEHPAETEYDSLYPEDDL
modifications: Fibrinogen gamma chain
notes: isolated γ chain of fibrinogen

Legend:
HF [1] = test: Cell proliferation, MTS assay; assay type: cell-based, human; conditions: 0.4 nM-4 μM, 96 well plates
Protocol: Cell proliferation was evaluated by measuring cell density as a function of time by two different colorimetric assays. The MTS colorimetric assay (CellTitre 96 Aqueous Assay by Promega) is based on dehydrogenase conversion of MTS (methyl tetrazolium salt) by viable cells to […] (Ge M. Tang, G., Ryan. T. J. and Malik. A. B., “Fibrinogen degradation product fragment D induces endothelial cell detachment by activation of cell-mediated fibrinolysis”, J. Clin. Inves., 90:2508-2516 (1992)); the methylene blue (MB) assay is based on the staining of monolayer cells after their fixation, and reading the absorbence of the absorbed dye.
The MTS assay for viable cells was performed as follows: 30 μL of freshly prepared MTS/PMS were added to each well; following 2 hrs incubation at 37° C., the plates were placed on a computer driven microplate reader (Anthos HT-II, Salzburg, Austria), programmed to shake the plate for 1 minute before reading the optical density (OD) of the dye at 490 nm. The measurements were repeated following 4 and 6 hours of incubation.
Peptides (Cα (SEQ ID NO:4), […], PreCγ (SEQ ID NO:2) and CαE (SEQ ID NO:3)), up to 1 μg/mL or 100 μg/mL fibrinogen or thrombin (final concentrations) were added to the culture medium and cell numbers were assayed by day 3 using the MTS assay. The change in cell number was compared with that observed versus saline control. Of the 5 peptides tested at dosages up to 10 μg/mL (approximately equimolar to 1 μg/mL fibrinogen), none of the peptides exerted significant effect on cell proliferation (FIG. 7).

[2] = test system: bovine aortic endothelial cells (EC, BAEC); test: Haptotaxis assay: attachment of ligand-coated SB to cultured cells; assay type: cell-based; conditions: for % Binding of peptide-coated SB to normal cultured cells: percentage of SB-ligand attached to cells by day 4
Protocol: (§1) Peptides or fibrinogen were covalently bound to CNBr activated sepharose beads (SB) (Pharmacia, Piscataway, N.J.) using techniques previously used to bind albumin, fibrinogen and thrombin. Briefly, CNBr-activated sepharose 4B (Pharmacia) was washed with 1N HCl, and suspended in the coupling buffer (pH 8.3), following the protocol supplied by the manufacturer. The peptides were dialyzed against the coupling buffer to remove Tris. Peptides (1 mg) were not highly water soluble. The peptides were dissolved in 1 mL 70% ethanol or dimethylformamide, and were then mixed into the coupling buffer containing 1 mL CNBr-activated sepharose. The suspension was gently agitated overnight, then centrifuged 500×g to pack the beads. This procedure covalently binds more than 95% of proteins or peptides including fibrinogen or peptides-CαE (SEQ ID NO:3), Cβ (SEQ ID NO:1) and preCγ (SEQ ID NO:2) to the beads determined by Abs280 readings of the solutions.
(§2) The migratory/adhesion response of cells to proteins (such as fibrinogen) or peptides covalently bound to SB was measured as follows. Cells were grown in 6 or 12 well plates to near confluence or in suspension until they covered about ½ to ⅔ of the plate surface. At that point, about […] of a suspension containing 50% v/v SB coated with the test protein or peptide were added to the plate and dispersed by gentle shaking for 1 min. The plate was then returned to the incubator and examined at different times by inverted phase microscopy.
(§3) The SB (naked or ligand bound) sedimented onto the nearly confluent cell layer and occasionally made physical contact with cell membranes on the plate (ascribed to Brownian motion or micro-convection currents). […] Typically, 300 beads (but not less then 200) were counted in each well and the ratio of SB bound to the cells relative to total number SB could be calculated (SB bound/SB total). Counting the percentage of SB attached to the cell surface at different time intervals provided a quantitative assay of the kinetics of the attachment of coated beads to cells. Negative control with uncoated SB or positive controls with SB-fibrinogen were employed with at least 3 wells measured for each. The statistical error was calculated from the square root of the total counts.
(§4) The peptides of the present invention were synthesized and tested in cell culture systems as described above. Essentially, peptides were covalently attached to sepharose beads to form SB-Cα (SEQ ID NO:4), SB-Cβ (SEQ ID NO:1), SB-PreCγ (SEQ ID NO:2), SB-Cγ (SEQ ID NO:5) and SB-CαE (SEQ ID NO:3), respectively, as was fibrinogen to form SB-Fib. The SB-peptide combination was then incubated with cultured cells. […] The haptotactic potency of the peptides is summarized in Table 3 with the percentage of SB-Fib/peptide attached to cells (by day 4) given in columns 2-5 of Table 3.

HF [3] = test: Chemotaxis, micro-Boyden chamber assay; assay type: cell-based, human; conditions: compared with BAEC
Protocol: (§5) Chemotaxis was evaluated using 48-well plastic Microtaxis micro-Boyden chambers. Polycarbonate filters with pore size of 8 μm were coated with fibronectin for 2 hours at 37° C. Conditioned medium from 3T3 cells served as a positive control. Test solution (26 μl) containing the tested peptides or protein or medium with no additions that served as control were placed in the lower chamber, covered with the filter. 50 μl cell suspension was introduced to the upper chamber of each well. The number of cells/well varied in the range of 5,000-10,000 in different experiments. The device loaded with cells was incubated at 37° C. for 4-5 hours. The filter was then removed and the non-migrating cells on its upper part were carefully wiped off with a damp cotton swab. The filter was fixed in methanol and stained with Accustain (modified Wright stain solution Sigma Diagnostics: St. Lois, Mo.). Cells that crossed or were retained within the filter were counted microscopically at low magnification so that the viewing field corresponded to the whole area of each well. Each experimental variant was performed in duplicated or triplicates and the data from, three successful experiments were normalized to the values of the positive control and averaged.
The chemotactic response of BAEC to a soluble gradient of Cα (SEQ ID NO:1), the most haptotactic of the peptides studied was as follows. […]

tested cell lines = test: Haptotaxis assay, statements over the tested cell lines; assay type: cell-based; conditions: ligands covalently bound to SB; for haptotactic response / cell binding to SB-ligand, in words: near confluent cell cultures
Protocol: as §1, §2, §3, §4

EC cells (BAEC) = test: FACS analysis of binding of FITC-labeled peptides; assay type: cell-based, bovine; conditions: 10 μg/ml or 100 μg/ml, medium with 0.1% albumin
Protocol: (§6) EC and HF cell monolayers were washed and then incubated with trypsin-versene. Cells were then washed with growth medium and resuspended in medium with 0.1% albumin. FITC-labeled peptide-Cβ (SEQ ID NO:1) was incubated with 5×10^5 EC cells (10 μg/ml or 100 μg/ml) or with 2.5×10^5 HF cells (100 μg/ml) in medium with 0.1% albumin. FITC-labeled peptide-CαE (SEQ ID NO:3) and Cα (SEQ ID NO:4) (10 μg/ml) was incubated with 5×10^5 EC cells in medium with 0.1% albumin. Cells were then washed with PBS and 1% albumin. Cells were resuspended in PBS and 1% albumin and then filtered through a mesh for FACS analysis, in which the FITC tluorescence was measured for each cell.
(§7) The control is without FITC-labeled peptide (background fluorescence).
(§8) In competition experiments, cells were incubated with various concentrations of unlabeled Cβ (SEQ ID NO:1) for 15 mins, an aliquot of Cβ^FITC (4 mM) was added and the sample was subjected to FACS analysis. […] The Cβ^FITC (SEQ ID NO:1) uptake experiments best fitted a linear-quadratic curve-fit.

BAEC = test: Chemotaxis, micro-Boyden chamber assay; assay type: cell-based, bovine; conditions: up to 40 μg/ml
Protocol: as §5
The chemotactic response of BAEC to a soluble gradient of […], the most haptotactic of the peptides studied was as follows. The results can be seen in FIG. 6. […] A similar, though more moderate, chemotaxis response to Cβ (SEQ ID NO:1) was obtained with HF.

cells such as HF or BAEC = test: FACS competition and uptake experiments with Cβ-FITC; assay type: cell-based; parameters: dose or concentration left out as unconfirmed; conditions: preincubation with unlabeled Cβ for 15 mins
Protocol: as §8

HF cells = test: FACS analysis of binding of FITC-labeled peptides; assay type: cell-based, human; conditions: 100 μg/ml, medium with 0.1% albumin
Protocol: as §6, §7, §8

[4] = test system: normal human keratinocytes; test: Haptotaxis assay: attachment of ligand-coated SB to cultured cells; assay type: cell-based; conditions: Keratinocyte; percentage of SB-ligand attached to cells by day 4
Protocol: as §1, §2, §3, §4

[5] = test system: normal murine fibroblasts (MF); test: as above; assay type: cell-based; conditions: for % Binding of peptide-coated SB to normal cultured cells: percentage of SB-ligand attached to cells by day 4
Protocol: as §1, §2, §3, §4

[6] = test system: murine mammary adenocarcinoma cells (EMT-6); test: as above; assay type: cell-based; conditions: for % Binding of peptide-coated SB to normal cultured cells: percentage of SB-ligand attached to cells by day 4
Protocol: as §1, §2, §3, §4

[7] = test system: human ovarian carcinoma cells (OV-1063); test: as above; assay type: cell-based; conditions: percentage of SB-ligand attached to cells by day 4
Protocol: as §1, §2, §3, §4

[8] = test system: porcine smooth muscle cells (SMC); test: as above; assay type: cell-based; conditions: for % Binding of peptide-coated SB to normal cultured cells: percentage of SB-ligand attached to cells by day 4
Protocol: as §1, §2, §3, §4

[9] = test system: normal human skin fibroblasts (HF); test: Haptotaxis assay: attachment of ligand-coated sepharose beads (SB) to cultured cells; assay type: cell-based; conditions: for % Binding of peptide-coated SB to normal cultured cells: percentage of SB-ligand attached to cells by day 4
Protocol: as §1, §2, §3, §4

human fibroblasts = conditions: isolated constituent chains of fibrinogen; Gray et al. 1993; cited from earlier work

Molecule	cell binding / haptotactic response to SB-ligand, in words [2]	haptotactic response / cell binding to SB-ligand, in words (tested cell lines)	% Binding of peptide-coated SB to normal cultured cells [2] [%]	% Binding of peptide-coated SB to normal cultured cells [4] [%]	% Binding of peptide-coated SB to normal cultured cells [5] [%]	% Binding of peptide-coated SB to normal cultured cells [6] [%]	% Binding of peptide-coated SB to normal cultured cells [7] [%]	% Binding of peptide-coated SB to normal cultured cells [8] [%]	cell lines excepted from binding to SB-ligand (all other tested lines bound) (tested cell lines)	number of cell lines bound by SB-ligand out of 7 tested (tested cell lines)	% Binding of peptide-coated SB to normal cultured cells [9] [%]	other results
KGSWYSMRKMSMKIRPFFPQQ (Equivalent to the c-terminus of fibrinogen beta-chain) [Cβ, haptotactic peptide homologous to the carboxy terminus of the fibrinogen β chain, β 441-461]	greatest haptotactic response	highly haptotactic; also recorded: significant haptotactic responses										proliferative response of HF (MTS proliferation assay) (HF [1]): none of these peptides stimulated or inhibited proliferation; chemotaxis response of HF, in words (HF [3]): more moderate; binding/uptake of FITC-labeled peptide by FACS, in words (EC cells (BAEC)): higher than that of CαE; also recorded: clearly bound to cells; chemotactic response relative to negative control of 1% BSA serum-free medium (BAEC; BAEC): 3 times; chemotactic response of BAEC, in words (BAEC; soluble gradient, conditioned medium = 100% chemotaxis): highly significant chemotaxis; effect of unlabeled peptide on uptake of Cβ-FITC (competition) (cells such as HF or BAEC): increased the level of total Cβ; binding/uptake of FITC-labeled peptide by FACS, in words (HF cells): higher than that of CαE
SB-CαE: peptide-CαE (SEQ ID NO:3) covalently attached to sepharose beads (RGADYSLRAVRMKIRPLVTQ; also: attached to sepharose beads)	strong binding	next most potent	43	0	61	64	0	8	with the exception of OV-1063, keratinocytes and cells derived from a leucocytic lineage	5	52	cell binding to SB-ligand, in words [5]: strong binding; cell binding to SB-ligand, in words [6]: strong binding; cell binding to SB-ligand, in words [8]: Weak attachment; cell binding to SB-ligand, in words [9]: strong binding
SB-Cβ: peptide-Cβ (SEQ ID NO:1) covalently attached to sepharose beads (KGSWYSMRKMSMKIRPFFPQQ; also: attached to sepharose beads)		most potent	94	0	89	99	4	100	with the exception of OV-1063, keratinocytes and cells derived from a leucocytic lineage	5	100	
B1												stimulation of fibroblast proliferation above controls (human fibroblasts): no effect
